From PMC6199744, “Development of Chemical Proteomics for the Folateome and Analysis of the Kinetoplastid Folateome” (ACS Infectious Diseases, 2018)
Like-named read-outs stand apart in the source and are kept apart here.

Assays:
Assay type in all cases: binding
[1] = biological target: T1, HeLa cell extract proteins (Homo sapiens, UniProt Q14CZ7)
T1 construct: endogenous in cells; host or cells: HeLa cell extract
T1 sequence (Q14CZ7 1-662): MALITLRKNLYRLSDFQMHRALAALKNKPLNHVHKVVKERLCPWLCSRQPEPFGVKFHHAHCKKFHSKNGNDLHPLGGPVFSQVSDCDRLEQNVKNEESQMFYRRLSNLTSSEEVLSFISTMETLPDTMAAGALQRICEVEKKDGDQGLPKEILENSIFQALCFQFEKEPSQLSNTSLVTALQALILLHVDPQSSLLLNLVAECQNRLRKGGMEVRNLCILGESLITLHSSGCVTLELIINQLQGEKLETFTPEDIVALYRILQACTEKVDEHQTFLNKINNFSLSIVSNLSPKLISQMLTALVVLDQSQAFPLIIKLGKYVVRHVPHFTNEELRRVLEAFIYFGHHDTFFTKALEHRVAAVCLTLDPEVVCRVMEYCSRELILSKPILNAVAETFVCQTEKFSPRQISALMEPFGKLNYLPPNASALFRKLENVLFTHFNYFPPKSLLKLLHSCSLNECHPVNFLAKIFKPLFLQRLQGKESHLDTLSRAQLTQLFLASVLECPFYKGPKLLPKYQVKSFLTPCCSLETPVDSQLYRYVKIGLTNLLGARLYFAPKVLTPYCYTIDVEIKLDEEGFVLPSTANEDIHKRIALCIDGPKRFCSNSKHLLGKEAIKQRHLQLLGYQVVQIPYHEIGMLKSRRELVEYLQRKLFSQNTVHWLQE

[2] = biological target: T2, HeLa cell extract proteins (Homo sapiens, UniProt P07686)
T2 construct: endogenous in cells; host or cells: HeLa cell extract
T2 sequence (P07686 122-556): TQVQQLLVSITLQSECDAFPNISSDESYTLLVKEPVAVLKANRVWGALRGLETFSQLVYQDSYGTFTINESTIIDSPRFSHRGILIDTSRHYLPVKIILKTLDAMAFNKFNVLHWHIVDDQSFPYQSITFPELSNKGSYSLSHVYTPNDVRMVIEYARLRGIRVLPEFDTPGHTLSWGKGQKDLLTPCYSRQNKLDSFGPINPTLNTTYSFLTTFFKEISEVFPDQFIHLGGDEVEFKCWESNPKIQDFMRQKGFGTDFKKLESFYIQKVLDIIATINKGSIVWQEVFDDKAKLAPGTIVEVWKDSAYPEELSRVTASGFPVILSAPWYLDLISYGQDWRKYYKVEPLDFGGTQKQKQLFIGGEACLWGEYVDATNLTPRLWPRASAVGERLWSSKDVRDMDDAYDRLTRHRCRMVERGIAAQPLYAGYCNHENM

[3] = biological target: T3, HeLa cell extract proteins (Homo sapiens, UniProt Q15645)
T3 construct: endogenous in cells; host or cells: HeLa cell extract
T3 sequence (Q15645 1-432): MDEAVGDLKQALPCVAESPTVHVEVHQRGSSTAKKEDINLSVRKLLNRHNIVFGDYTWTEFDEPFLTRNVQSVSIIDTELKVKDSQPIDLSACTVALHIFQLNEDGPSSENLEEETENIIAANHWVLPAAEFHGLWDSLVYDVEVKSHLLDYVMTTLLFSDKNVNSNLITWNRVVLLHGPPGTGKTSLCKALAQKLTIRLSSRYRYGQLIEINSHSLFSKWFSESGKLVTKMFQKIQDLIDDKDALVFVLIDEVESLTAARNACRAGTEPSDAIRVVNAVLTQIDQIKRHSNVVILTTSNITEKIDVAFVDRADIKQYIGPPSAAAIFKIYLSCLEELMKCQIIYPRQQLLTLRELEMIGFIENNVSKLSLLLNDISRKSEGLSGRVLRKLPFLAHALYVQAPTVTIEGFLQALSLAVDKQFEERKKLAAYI

[4] = biological target: T4, HeLa cell extract proteins (Homo sapiens, UniProt Q99623)
T4 construct: endogenous in cells; host or cells: HeLa cell extract
T4 sequence (Q99623 whole entry): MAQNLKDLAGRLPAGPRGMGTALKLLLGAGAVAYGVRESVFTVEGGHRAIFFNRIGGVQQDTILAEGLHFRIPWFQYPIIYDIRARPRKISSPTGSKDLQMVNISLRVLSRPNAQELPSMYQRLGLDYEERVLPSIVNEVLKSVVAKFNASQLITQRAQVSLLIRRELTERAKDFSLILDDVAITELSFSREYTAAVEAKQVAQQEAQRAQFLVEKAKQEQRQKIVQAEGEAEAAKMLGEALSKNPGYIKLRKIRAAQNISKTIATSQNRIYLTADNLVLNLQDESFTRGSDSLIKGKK

[5] = biological target: T5, HeLa cell extract proteins (Homo sapiens, UniProt Q9H0N5)
T5 construct: endogenous in cells; host or cells: HeLa cell extract
T5 sequence (Q9H0N5 whole entry): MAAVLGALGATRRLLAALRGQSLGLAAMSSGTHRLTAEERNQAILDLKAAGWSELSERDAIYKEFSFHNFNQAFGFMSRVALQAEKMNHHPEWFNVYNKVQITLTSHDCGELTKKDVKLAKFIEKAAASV

[6] = biological target: T6, HeLa cell extract proteins (Homo sapiens, UniProt P61769)
T6 construct: endogenous in cells; host or cells: HeLa cell extract
T6 sequence (P61769 21-119): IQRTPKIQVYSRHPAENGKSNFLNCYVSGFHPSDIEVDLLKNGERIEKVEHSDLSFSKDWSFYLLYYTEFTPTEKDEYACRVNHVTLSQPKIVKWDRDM

[7] = biological target: T7, HeLa cell extract proteins (Homo sapiens, UniProt P52907)
T7 construct: endogenous in cells; host or cells: HeLa cell extract

[8] = biological target: T8, HeLa cell extract proteins (Homo sapiens, UniProt Q9HBL8)
T8 construct: endogenous in cells; host or cells: HeLa cell extract
T8 sequence (Q9HBL8 whole entry): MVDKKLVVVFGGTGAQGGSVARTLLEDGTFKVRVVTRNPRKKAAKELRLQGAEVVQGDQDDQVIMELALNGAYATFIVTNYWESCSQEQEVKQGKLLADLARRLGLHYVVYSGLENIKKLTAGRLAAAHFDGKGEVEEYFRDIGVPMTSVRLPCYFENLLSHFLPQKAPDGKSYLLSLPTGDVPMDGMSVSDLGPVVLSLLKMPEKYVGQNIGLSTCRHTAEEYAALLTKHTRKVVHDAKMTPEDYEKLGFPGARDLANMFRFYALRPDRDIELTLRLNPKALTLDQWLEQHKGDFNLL

[9] = biological target: T9, HeLa cell extract proteins (Homo sapiens, UniProt P51659)
T9 construct: endogenous in cells; host or cells: HeLa cell extract
T9 sequence (P51659 1-736): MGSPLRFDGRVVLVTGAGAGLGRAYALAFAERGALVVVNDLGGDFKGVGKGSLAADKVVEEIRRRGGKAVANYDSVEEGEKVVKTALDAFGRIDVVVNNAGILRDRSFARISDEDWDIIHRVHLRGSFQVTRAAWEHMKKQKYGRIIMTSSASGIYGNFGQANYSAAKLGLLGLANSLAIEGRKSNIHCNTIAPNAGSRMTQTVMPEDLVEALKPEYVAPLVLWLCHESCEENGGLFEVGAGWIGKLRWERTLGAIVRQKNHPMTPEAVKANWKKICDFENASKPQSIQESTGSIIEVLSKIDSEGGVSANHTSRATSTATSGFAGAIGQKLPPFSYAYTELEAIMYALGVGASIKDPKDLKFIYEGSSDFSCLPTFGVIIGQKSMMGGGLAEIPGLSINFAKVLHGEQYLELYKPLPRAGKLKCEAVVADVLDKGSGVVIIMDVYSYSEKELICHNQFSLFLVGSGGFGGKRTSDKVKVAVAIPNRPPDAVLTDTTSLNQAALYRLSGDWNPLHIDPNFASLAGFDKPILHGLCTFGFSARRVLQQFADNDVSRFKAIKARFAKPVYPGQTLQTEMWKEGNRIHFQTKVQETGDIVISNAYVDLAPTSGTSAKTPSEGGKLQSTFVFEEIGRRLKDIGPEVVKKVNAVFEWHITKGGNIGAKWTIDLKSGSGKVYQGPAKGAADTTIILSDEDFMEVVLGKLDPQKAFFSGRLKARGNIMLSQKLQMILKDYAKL

[10] = HeLa, protein B2M (CDNA FLJ57067, HIGHLY SIMILAR TO BETA-2-MICROGLOBULIN)
[11] = HeLa, protein HSD17B4 (CDNA FLJ55431, HIGHLY SIMILAR TO PEROXISOMAL MULTIFUNCTIONAL ENZYME TYPE 2)

SMILES	fold changes relative to vehicle control ([1]; captured protein FASTKD3, HeLa)	fold changes relative to vehicle control ([2]; HeLa, protein HEXB)	fold changes relative to vehicle control ([3]; HeLa, protein TRIP13)	fold changes relative to vehicle control ([4]; HeLa, protein PHB2)	fold changes relative to vehicle control ([5]; captured protein PCBD2, HeLa)	fold changes relative to vehicle control ([6]; protein B2M, HeLa)	fold changes relative to vehicle control ([7]; protein CAPZA1, HeLa)	fold changes relative to vehicle control ([8]; captured protein NMRAL1, HeLa)	fold changes relative to vehicle control ([9]; protein HSD17B4, HeLa)	fold changes relative to vehicle control ([1]; HeLa, protein FASTKD3)	fold changes relative to vehicle control ([4]; protein PHB2, HeLa)	fold changes relative to vehicle control ([5]; HeLa, captured protein PCBD2)	fold changes relative to vehicle control [6, 10]	fold changes relative to vehicle control ([7]; HeLa, protein CAPZA1)	fold changes relative to vehicle control ([8]; protein NMRAL1, HeLa)	fold changes relative to vehicle control [9, 11]	also measured
Nc1nc2cccc(-c3ccccc3)c2n1Cc1ccc(Cl)c(Cl)c1 [compound 3]	0.95	0.93	1.24	1.04	1	1.07	1.15	0.95	1.14								
Nc1nc2[nH]cc(CCc3ccc(C(=O)N[C@@H](CCC(=O)O)C(=O)O)cc3)c2c(=O)[nH]1 [PTX, pemetrexed]																	fold changes relative to vehicle control [1]: 0.86; fold changes relative to vehicle control [2]: 1; fold changes relative to vehicle control [3]: 0.88; fold changes relative to vehicle control [4]: 0.86; fold changes relative to vehicle control [5]: 0.99; fold changes relative to vehicle control [6]: 1.51; fold changes relative to vehicle control [7]: 1.02; fold changes relative to vehicle control [8]: 0.89; fold changes relative to vehicle control [9]: 1.15
Nc1nc2c(c(=O)[nH]1)N(C=O)C(CNc1ccc(C(=O)N[C@@H](CCC(=O)O)C(=O)O)cc1)CN2 (stereo partly drawn) [LEU, leucovorin]		0.97	0.92							1.02	0.85	1.14	1.24	0.89	1.01	1.25	
CCCCCCOc1cccc(Cc2cnc(N)nc2N)c1 [compound 2]	0.94	1.06	1.17	0.91	0.77	1.16	1.32	1.05	1.22								
NCCOCCOCC(=O)Nc1nc2ncc(CNc3ccc(C(=O)NC(CCC(=O)O)C(=O)O)cc3)nc2c(=O)[nH]1 (stereo not drawn) [compound 6]		1.05	0.94							1.01	0.95	1.02	1.37	1.11	0.62	1.02	
CCCCCCOc1ccc(Cc2cnc(N)nc2N)cc1 [compound 1]	0.93	1.04	0.96	0.95	0.88	1.14	1.13	0.54	1.07								
NCCCNc1ccc(C(=O)NC(CCC(=O)O)C(=O)O)cc1 (stereo not drawn) [compound 7]		1.06	1.09							0.9	1	1.14	1.31	1.09	1.03	1.07	
